Measurements: patent publication US8124623B2, “5-hydroxymethyl-oxazolidin-2-one-derivatives and their uses as antibacterials” (Actelion Pharmaceuticals Ltd., priority 2006, dated 2012)
Values after ≈ are worked out from the molar mass of the structure shown.

Key:
[1] = system: Bacteroides fragilis A-992 ATCC 25285; experiment: MIC, particular anaerobic bacterial strains; type: cell-based; details: ATCC25285
[2] = system: Bacteroides thetaiotaomicron A-990 ATCC 29741; experiment: microbe, parasite or virus in culture; type: cell-based; details: ATCC29741
[3] = system: Eubacterium limosum A-1259 DSM 20698; experiment: MIC, particular anaerobic bacterial strains; type: cell-based
[4] = system: Finegoldia magna A-1254 DSM 20470; experiment: MIC, particular anaerobic bacterial strains; type: cell-based
[5] = system: Lactobacillus acidophilus A-1255 DSM 20079; experiment: MIC, particular anaerobic bacterial strains; type: cell-based
[6] = system: Lactococcus lactis A-1256 DSM 20069; experiment: MIC, particular anaerobic bacterial strains; type: cell-based
[7] = system: C. difficile strain NC13366; type: cell-based; details: 1 and 8 μg/mL, day 5 vs day 1, high density stationary phase cultures
[8] = system: C. difficile strain NC13366; type: cell-based; details: treated cultures compared to the untreated control, day 5
[9] = system: toxigenic C. difficile strain 10465; experiment: C. difficile hamster model; type: in vivo, Golden Syrian hamsters
Method: Golden Syrian hamsters were given a single injection of clindamycin phosphate (10 mg/kg s.c.), and a day later animals were infected by gavage with 10^5 CFU of toxigenic C. difficile strain 10465. A fulminant colitis results in the majority (˜95%) of animals and develops 1 to 2 days after the administration of C. difficile. Untreated, the colitis progresses rapidly and turns into severe colitis, hemorrhagic necrosis of the cecum and death. The compound of Example 1 was administered orally as a suspension at three dosage levels (10 mg/kg, 30 mg/kg and 100 mg/kg; n=10 per group). Vancomycin (50 mg/kg) was used as a control. Animals were treated once daily for 5 days and afterwards maintain under observation for an additional 21 days.
The animals were observed three times daily for morbidity and presence or absence of diarrhoea. The final endpoint of the study was survival. Animals judged to be in a moribund state [extended period of weight loss progressing to an emaciated state, anorexia for 24-48 h, prolonged lethargy (more than 3 days), signs of paralysis, skin erosions or trauma, hunched posture, distended abdomen] were euthanized by a single injection of sodium pentobarbital.

[10] = 10 mg/kg orally once daily for 5 days
[11] = 30 mg/kg orally once daily for 5 days

O=C(O)c1cn(C2CC2)c2cc(N3CCC(O)(COc4ccc(N5C[C@H](CO)OC5=O)cc4F)CC3)c(F)cc2c1=O [Example 1, 1-cyclopropyl-6-fluoro-7-{4-[2-fluoro-4-((R)-5-hydroxymethyl-2-oxo-oxazolidin-3-yl)-phenoxymethyl]-4-hydroxy-piperidin-1-yl}-4-oxo-1,4-dihydro-quinoline-3-carboxylic acid]
MIC [1]: 8 µg/mL (≈ 13.7 µM)
MIC [2]: 8 µg/mL (≈ 13.7 µM)
less activity than compound of Example 5 of WO 2005/058888 (R1) [3]: 4 times
less activity than compound of Example 5 of WO 2005/058888 (R1) [4]: 4 times
less activity than compound of Example 5 of WO 2005/058888 (R1) [5]: 8 times
less activity than compound of Example 5 of WO 2005/058888 (R1) [6]: 8 times
de novo toxin A production in supernatants [7]: inhibited de novo toxin A production
reduction of toxin B activity of culture supernatants [8]: > 90%
animals surviving the 5 day treatment period [9, 10]: all animals
animals surviving the relapse phase of 21 days after treatment [9, 10]: 40%
animals surviving the 5 day treatment period [9, 11]: all animals
animals surviving the relapse phase of 21 days after treatment without relapse [9, 11]: 80%
animals surviving the 5 day treatment period ([9]; 100 mg/kg orally once daily for 5 days): all animals
